Data published in patent US5130117A, “Radiohalogenated benzazepine derivatives and method of imaging dopamine receptors therewith” (Trustees of the University of Pennsylvania, priority 1991, dated 1992).
“Also recorded” adds a separate entry of the source. Structures can show the parent of a compound that is named as a salt. Where two headings read alike, the source gives them in different places. One block for each molecule: values may come before it.

Experiments:
[1] = molecular target: T1, dopamine D-1 receptor (rat striatal membranes) (Rattus norvegicus, UniProt P18901); assay: Competition: inhibition of [^125 I]FISCH binding to rat striatal membranes; conditions: for Ki: 0.15-0.30 nM [^125 I]FISCH, rat striatal membranes, three to five determinations, read-out: ki (mean + SEM)
T1 construct: Striatal tissues were excised, pooled and homogenized; from tissue; host or cells: striatum of male Sprague-Dawley rats
Method: indicated compounds in 7-11 concentrations and of membrane preparation
from rat striatum. Each value represenets the mean ± SEM of three to
(§1) Male Sprague-Dawley rats (200-250g) were decapitated, and the brains were removed and placed in ice. Striatal tissues were excised, pooled and homogenized in 100 volumes(w/v) of ice-cold Tris-HCl buffer (50 mM), pH 7.4. The homogenates were centrifuged at 20,000×g for 20 min. The resultant pellets were rehomogenized in the same buffer and centrifuged again. The final pellets were resuspended in assay buffer containing: 50 mM Tris buffer pH 7.4, 120 mM NaCl, 5 mM KCl, 2mM CaCl2 and 1 mM MgCl2.
(§2) The binding assays were performed by incubating 50 μl of tissue preparations containing 40-60μg of protein with appropriate amounts of [^125 l]FISCH ligand and competitors in a total volume of 0.2 ml of the assay buffer. After an incubation period of 20 min at 37° C. (with stirring), the samples were rapidly filtered in the cell harvester (Brandel M-24R) under vacuum through Whatman GF/B glass fiber filters pretreated with 0.2% protamine sulfate and washed with 3×5ml of cold (4° C.) 50 mM Tris-HCl buffer, pH 7.4. […] The filters were counted in a gamma counter (Beckman 5500) at an efficiency of 70%.
(§3) Both Scatchard and competition experiments were analyzed using the iterative non-linear least squares curve-fitting program LIGAND.

[2] = molecular target: T2, dopamine D-1 receptor (rat striatal homogenate) (Rattus norvegicus, UniProt P18901); assay: Saturation binding of radioiodinated ligand to rat striatal homogenate; conditions: for Kd: specific binding, rat striatal homogenate, racemic mixture; for affinity to rat striatal homogenate / Kd compared with [^125 I]IBZP (R-(+), active form): in words; for Kd compared with [^125 I]IBZP (R-(+), active form): similar conditions
T2 construct: Striatal tissues were excised, pooled and homogenized; from tissue; host or cells: striatum of male Sprague-Dawley rats
Method: as §1, §2, §3

[3] = molecular target: T1, dopamine D-1 receptor (rat striatal membranes); assay: Competition: inhibition of [^125 I]TISCH binding to rat striatal membranes; conditions: for Ki: [^125 I]TISCH, rat striatal membranes, read-out: ki (mean + SEM)
Method: as §1, §2, §3

D-1 dopamine receptors [4] = conditions: rat, in vivo; for striatum/cerebellum (ST/CB) ratio: iv
Method: Regional brain distribution in rats was obtained after an iv injection of [^125 l]FISCH. By dissecting, weighing and counting samples from different brain regions (cortex, striatum, hippocampus and cerebellum), % dose/gram of samples was calculated by comparing the sample counts with the counts of the diluted initial dose. The uptake ratio of each region was obtained by dividing % dose/gram of each region with that of the cerebellum.

[5] = Biodistribution in rats of [^125 I]FISCH after iv injection; type: in vivo, male Sprague Dawley rats; conditions: rat; for brain uptake: iv
Method: Biodistribution of [^125 l]FISCH was studied in male Sprague Dawley rats (225-300g) which were allowed free access to food and water. While under halothane anesthesia, 0.2 ml of a saline solution containing [^125 l]FISCH was injected directly into the femoral vein, and the rats were sacrificed at various time points post injection by cardiac excision under halothane anesthesia. The organs of interest were removed, weighed and radioactivity was counted using a Beckman gamma automatic counter (Model 4000). The percent dose per organ was calculated by a comparison of the tissue counts to suitably diluted aliquots of the injected material. Total activities of blood and muscle were calculated assuming that they are 7% and 40% of total body weight, respectively.

[6] = molecular target: central D-1 dopamine receptors; conditions: cited from earlier work; for Kd: in vitro binding, rat striatum tissue preparation
[7] = cited from earlier work
D-1 dopamine receptors [8] = conditions: cited from earlier work
D-1 receptors = assay: Activity of optically resolved isomers of FISCH; conditions: optical resolution of FISCH isomers
Source text: The compounds of this invention can exist as either R- or S- isomers. It is important to note that the aforementioned data were obtained using a racemic mixture of FISCH.

D-1 receptor = conditions: ^11 C label, PET, human brain; cited from earlier work

T1 sequence (P18901 whole entry): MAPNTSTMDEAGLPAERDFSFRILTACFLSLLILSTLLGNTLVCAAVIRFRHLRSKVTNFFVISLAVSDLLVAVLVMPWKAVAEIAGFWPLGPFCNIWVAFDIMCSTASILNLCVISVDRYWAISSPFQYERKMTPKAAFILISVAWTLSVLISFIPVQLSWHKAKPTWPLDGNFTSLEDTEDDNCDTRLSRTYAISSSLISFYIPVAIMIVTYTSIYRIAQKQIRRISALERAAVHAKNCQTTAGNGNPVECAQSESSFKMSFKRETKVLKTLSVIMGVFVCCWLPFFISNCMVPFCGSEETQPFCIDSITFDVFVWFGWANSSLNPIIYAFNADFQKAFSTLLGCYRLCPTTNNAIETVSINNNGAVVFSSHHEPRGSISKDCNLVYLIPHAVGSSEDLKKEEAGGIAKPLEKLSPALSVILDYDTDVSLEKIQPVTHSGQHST
T2 sequence (P18901 whole entry): as above

SMILES: CN1CCc2cc(Cl)c(O)cc2C(c2ccc([125I])cc2)C1 (racemic) [FISCH, (±)-8-chloro-2,3,4,5-tetrahydro-3-methyl-5-(4'-[^125 I]iodophenyl) -1H-3-benzazepine-7-ol]
ST/CB ratio, change with time (D-1 dopamine receptors [4]): dramatic increase with time | striatum/cerebellum (ST/CB) ratio (D-1 dopamine receptors [4]; 2 min): 1.24 | striatum/cerebellum (ST/CB) ratio (D-1 dopamine receptors [4]; 15 min): 1.80 | striatum/cerebellum (ST/CB) ratio (D-1 dopamine receptors [4]; 60 min): 2.47 | lung clearance ([5]; fifteen and sixty minutes): rapid clearance | brain uptake / blood-brain barrier passage ([5]; in words): good brain uptake in rats; also recorded: passes through the blood-brain barrier with ease | in vivo stability (deiodination) compared with [^125 I]IBZP ([5]; in words): better in vivo stability | lung uptake ([5]; initial): High initial uptake | brain uptake ([5]; one hour after injection): 0.55 % dose/organ | brain uptake ([5]; two minutes after injection): 2.27 % dose/organ | brain retention compared with [^125 I]IBZP ([5]; one hour post injection): much better | thyroid uptake ([5]; one hour post injection): 0.04% | liver uptake ([5]; throughout the first hour): remains high throughout the first hour | nonspecific binding ([2]; at Kd, rat striatum, FIG. 2): approximately 15% | affinity to rat striatal homogenate [2]: high affinity | Kd compared with [^125 I]IBZP (R-(+), active form) [2]: comparable | selectivity for dopamine D-1 receptor ([1]; in words, from Tables 2 and 3): high selectivity

SMILES: CN1CCc2cc(I)c(O)cc2[C@@H](c2ccccc2)C1 [IBZP]
Kd [6]: 0.7 nM | selectivity/specificity for central D-1 dopamine receptors ([6]; in words): high specificity for central D-1 dopamine receptors | in vivo and in vitro stability ([7]; in words, deiodination): poor in vivo and in vitro stability | retention time in the brain ([7]; in words): short retention time in the brain | brain uptake ([7]; rat, iv, 2 minutes post injection): 2.7 %dose/organ | brain uptake ([7]; rat, iv, 15 minutes post injection): 1.2 %dose/organ | brain uptake ([7]; rat, iv, 30 minutes post injection): 0.8 %dose/organ | brain uptake ([7]; rat, iv, 60 minutes (one hour) post injection): 0.26 %dose/organ | brain localization ([7]; rat, iv): good localization in rat brains | thyroid uptake ([7]; rat, later time points): high at later time points | thyroid uptake ([7]; rat, one hour post injection): 0.1% | blockade of specific uptake regions by pretreatment with SCH-23390 (D-1 dopamine receptors [8]; in vivo autoradiography): can be blocked by pretreatment with SCH-23390 | regional distribution in rat brain (caudate putamen, accumbens nucleus and substantia nigra) (D-1 dopamine receptors [8]; in vivo autoradiography): high uptake | uptake ratio of striatum/cerebellum (D-1 dopamine receptors [8]; rat, thirty seconds after injection): 1.1 | uptake ratio of striatum/cerebellum (D-1 dopamine receptors [8]; rat, two hours after injection): 5.3 | striatum/cerebellum uptake ratio, change with time (D-1 dopamine receptors [8]; rat): increased with time

SMILES: CN1CCc2cc(Cl)c(O)cc2[C@@H](c2ccccc2)C1 [SCH-23390, R-(+)-8-chloro-2,3,4,5-tetrahydro-3-methyl5-phenyl-1H-3-benzazepine-7-ol]
Kd [6]: 0.36 nM | regional brain concentration (D-1 receptor): highest concentration in the basal ganglia area

SMILES: CN1CCc2ccc(O)cc2[C@@H](c2ccccc2)C1 [SKF-83692]
Kd [6]: 197 nM

Next, values leading:

Ki [1]: 13.4 ± 0.54 nM
SMILES: CN1CCc2cc(I)c(O)cc2C(c2ccccc2)C1 (racemic) [(±) IBZP, reference compound]

Kd [2]: 1.43 nM | Ki [1]: 1.71 ± 0.17 nM | Ki [3]: 2.07 ± 0.35 nM
SMILES: CN1CCc2cc(Cl)c(O)cc2C(c2ccc(I)cc2)C1 (racemic) [FISCH, (±)-8-chloro-2,3,4,5-tetrahydro-3-methyl-5-(4'-[^125 I]iodophenyl) -1H-3-benzazepine-7-ol]

activity of isomer (D-1 receptors): active
SMILES: CN1CCc2cc(Cl)c(O)cc2[C@@H](c2ccc(I)cc2)C1 [R+ isomer]

activity of isomer (D-1 receptors): inactive
SMILES: CN1CCc2cc(Cl)c(O)cc2[C@H](c2ccc(I)cc2)C1 [S- isomer]

affinity to rat striatal homogenate [2]: high affinity | Kd compared with [^125 I]IBZP (R-(+), active form) [2]: comparable | Kd [2]: 0.35 nM | Ki [3]: 0.55 ± 0.05 nM | selectivity for dopamine D-1 receptor ([3]; in words, from Tables 2 and 3): high selectivity
SMILES: CN1CCc2cc(Cl)c(O)cc2C(c2cccc(I)c2)C1 (stereo not drawn) [TISCH]

Ki [1]: 1270 ± 203 nM
SMILES: COc1cccc(OC)c1OCCNCC1COc2ccccc2O1 (stereo not drawn) [WB 4101, 2(2,6-dimethoxyphenoxyethyl)-aminomethyl-1,4-benzodioxane hydrochloride, reference compound]
